The values below are quoted from earlier work in PubChem BioAssay AID1259409 (Chemical Carcinogenesis Research Information System (CCRIS), 2018).

In the data set the test system is rodent chemically induced tumor inhibition, incidence and multiplicity. The data set can be described thus: CCRIS tumor inhibitor studies.

For `CC(C(=O)O)c1ccc(-c2ccccc2)c(F)c1` (stereo unspecified), the “tumour outcome (control, treated, inhibition, significance)” value is, setting by setting: (Carcinogen: N-METHYL-N-NITROSOUREA, 684-93-5, Dose [Inhibitor]: 31.25 MG/KG DIET DAILY STARTING 1 WK AFTER CARCINOGEN ADMINISTRATION AND CONTINUING THROUGH THE END OF THE STUDY (STUDY, Route [Inhibitor]: ORAL, Species: RAT, Strain/Sex: SPRAGUE-DAWLEY/FEMALE, Target Tissue: Type of Lesion: MAMMARY GLAND: CARCINOMA, Dose [Carcinogen]: 25 MG/KG BW ONCE, Promoter: NONE USED) 91%, 60%, 34%, p<0.05; (Carcinogen: N-METHYL-N-NITROSOUREA, 684-93-5, Dose [Inhibitor]: 31.25 MG/KG DIET DAILY STARTING 1 WK AFTER CARCINOGEN ADMINISTRATION AND CONTINUING THROUGH THE END OF THE STUDY (STUDY, Route [Inhibitor]: ORAL, Species: RAT, Strain/Sex: SPRAGUE-DAWLEY/FEMALE, Target Tissue: Type of Lesion: MAMMARY GLAND: CARCINOMA, Dose [Carcinogen]: 50 MG/KG BW ONCE, Promoter: NONE USED) 100%, 100%, 0%, not significant; (Carcinogen: N-METHYL-N-NITROSOUREA, 684-93-5, Dose [Inhibitor]: 31.25 MG/KG IN DIET STARTING 1 WK AFTER CARCINOGEN DOSE AND CONTINUING THROUGH THE END OF THE STUDY (STUDY DURATION: 180, Route [Inhibitor]: ORAL, Species: RAT, Strain/Sex: SPRAGUE-DAWLEY/FEMALE, Target Tissue: Type of Lesion: MAMMARY GLAND: CARCINOMA, Dose [Carcinogen]: 25 MG/KG BW ONCE, Promoter: NONE USED) 91%, 60%, 34%, p<0.05; (Carcinogen: N-METHYL-N-NITROSOUREA, 684-93-5, Dose [Inhibitor]: 31.25 MG/KG IN DIET STARTING 1 WK AFTER CARCINOGEN DOSE AND CONTINUING THROUGH THE END OF THE STUDY (STUDY DURATION: 180, Route [Inhibitor]: ORAL, Species: RAT, Strain/Sex: SPRAGUE-DAWLEY/FEMALE, Target Tissue: Type of Lesion: MAMMARY GLAND: CARCINOMA, Dose [Carcinogen]: 50 MG/KG BW ONCE, Promoter: NONE USED) 100%, 100%, 0%, not significant; (Carcinogen: N-METHYL-N-NITROSOUREA, 684-93-5, Dose [Inhibitor]: 62.5 MG/KG DIET DAILY STARTING 1 WK AFTER CARCINOGEN ADMINISTRATION AND CONTINUING THROUGH THE END OF THE STUDY (STUDY D, Route [Inhibitor]: ORAL, Species: RAT, Strain/Sex: SPRAGUE-DAWLEY/FEMALE, Target Tissue: Type of Lesion: MAMMARY GLAND: CARCINOMA, Dose [Carcinogen]: 25 MG/KG BW ONCE, Promoter: NONE USED) 91%, 68%, 25%, p<0.1; (Carcinogen: N-METHYL-N-NITROSOUREA, 684-93-5, Dose [Inhibitor]: 62.5 MG/KG DIET DAILY STARTING 1 WK AFTER CARCINOGEN ADMINISTRATION AND CONTINUING THROUGH THE END OF THE STUDY (STUDY D, Route [Inhibitor]: ORAL, Species: RAT, Strain/Sex: SPRAGUE-DAWLEY/FEMALE, Target Tissue: Type of Lesion: MAMMARY GLAND: CARCINOMA, Dose [Carcinogen]: 50 MG/KG BW ONCE, Promoter: NONE USED) 100%, 100%), 0%, not significant. The “tumour outcome (control, treated, inhibition, significance)” value was 91%, 68%, 25%, p<0.1 (Carcinogen: N-METHYL-N-NITROSOUREA, 684-93-5, Dose [Inhibitor]: 62.5 MG/KG IN DIET STARTING 1 WK AFTER CARCINOGEN DOSE AND CONTINUING THROUGH THE END OF THE STUDY (STUDY DURATION: 180, Route [Inhibitor]: ORAL, Species: RAT, Strain/Sex: SPRAGUE-DAWLEY/FEMALE, Target Tissue: Type of Lesion: MAMMARY GLAND: CARCINOMA, Dose [Carcinogen]: 25 MG/KG BW ONCE, Promoter: NONE USED) and 100%, 100%, 0%, not significant (Carcinogen: N-METHYL-N-NITROSOUREA, 684-93-5, Dose [Inhibitor]: 62.5 MG/KG IN DIET STARTING 1 WK AFTER CARCINOGEN DOSE AND CONTINUING THROUGH THE END OF THE STUDY (STUDY DURATION: 180, Route [Inhibitor]: ORAL, Species: RAT, Strain/Sex: SPRAGUE-DAWLEY/FEMALE, Target Tissue: Type of Lesion: MAMMARY GLAND: CARCINOMA, Dose [Carcinogen]: 50 MG/KG BW ONCE, Promoter: NONE USED).
Consider `c1c[nH]cn1`, for which the “tumour outcome (control, treated, inhibition, significance)” value (Carcinogen: N-METHYL-N-NITROSOUREA, 684-93-5, Dose [Inhibitor]: 1000 MG/KG OF LOW (3%) FAT DIET BEGINNING 1 WK POST CARCINOGEN DOSE AND CONTINUING FOR DURATION OF STUDY (STUDY DURATION, Route [Inhibitor]: ORAL, Species: RAT, Strain/Sex: SPRAGUE-DAWLEY/FEMALE, Target Tissue: Type of Lesion: MAMMARY GLAND: TUMOR, Dose [Carcinogen]: 40 MG/KG ONCE, Promoter: NONE USED) was 78%, 92%, -18%, not calculated.
Take `CCCCCCCCCCCCCCCC(=O)OCC(COC(=O)CCCCCCCCCCCCCCC)OC(=O)CCCCCCCCCCCCCCC`: the “tumour outcome (control, treated, inhibition, significance)” value (Carcinogen: DIMETHYLBENZANTHRACENE, 57-97-6, Dose [Inhibitor]: APPLIED 3 MIN POST EACH PROMOTER DOSE 3/WK FOR 20 WK BEGINNING 3 D POST CARCINOGEN DOSE (STUDY DURATION: 20 WK), Route [Inhibitor]: DERMAL, Species: MOUSE, Strain/Sex: SWISS/?, Target Tissue: Type of Lesion: SKIN: TUMOR, Dose [Carcinogen]: 250 UG/0.25 ML ONCE, Promoter: CROTON OIL, 8001-28-3) is 100%, 25%, 75%, not calculated.
Regarding `CC[C@H](C)/C=C/C1=CC2=C(Cl)C(=O)[C@@]3(C)OC(=O)C(C(=O)[C@@H](C)[C@@H](C)O)=C3C2=CO1`, the “tumour outcome (control, treated, inhibition, significance)” value (Carcinogen: 7,12-DIMETHYLBENZ[A]ANTHRACENE, 57-97-6, Dose [Inhibitor]: 0, 2 UMOL 2/WK FOR 18 WK APPLIED 30 MIN PRIOR TO EACH PROMOTER DOSE BEGINNING 1 WK POST CARCINOGEN DOSE (STUDY DURATION:, Route [Inhibitor]: DERMAL, Species: MOUSE, Strain/Sex: ICR/FEMALE, Target Tissue: Type of Lesion: SKIN: PAPILLOMA, Dose [Carcinogen]: 50 UG ONCE, Promoter: 12-O-TETRADECANOYLPHORBOL-13-ACETATE, 16561-29-8) is listed as 100%, 33%, 67%, not calculated.
